# Experiment: pH of aqueous solution over time
# Assay type: physicochemical
# Conditions: 10^–3 M H2O solution
# Description: Reactants and solvents were purchased from Alfa Aesar, Merck, Strem, or TCI Chemicals and were of the highest purity available. Tris(1-pyrazolyl)methane (tpm) was prepared according to the published procedure.[105] Reactions were conducted under a N2 atmosphere using standard Schlenk techniques, and all products were stored in air once isolated. All compounds are >95% pure by elemental analysis. Solvents were used as received unless otherwise stated. Toluene and diethyl ether were dried with the solvent purification system mBraun MB SPS5, while methanol was distilled from calcium hydride and isopropanol from magnesium. IR spectra of solid samples were recorded on an Agilent Cary630 FTIR spectrometer. IR spectra were processed with Spectragryph software.[106] NMR spectra were recorded at 298 K on a JEOL JNM-ECZ500R instrument equipped with a Royal HFX Broadband probe. Chemical shifts (expressed in parts per million) are referenced to the residual solvent peaks (^1H, ^13C)[107] or external standard (^31P to H3PO4). ^1H and ^13C{^1H} NMR spectra were assigned with the assistance of ^1H–^13C (gs-HSQC and gs-HMBC) correlation experiments.[108] Elemental analyses were performed on a Vario MICRO cube instrument (Elementar). Conductivity measurements were performed at 25 °C using an XS COND 8 instrument (cell constant = 1.0 cm^–1).[109],[110] pH measurements were performed with an Orion pH meter equipped with a Hamilton glass pH electrode. ESI-Q/ToF flow injection analysis was carried out using a 1200 Infinity HPLC (Agilent Technologies), coupled to a Jet Stream ESI interface (Agilent) with a Quadrupole-Time-of-Flight tandem mass spectrometer 6530 Infinity Q-TOF (Agilent Technologies).
substance,measurement,setting,value
[RuCl(κ^3-tpm)(PPh3){NCHN(Me)(CH)2}]Cl [compound 3],pH(24h),24 h,6.66
same,pH(48h),48 h,6.36
same,pH(t0),t0,6.78

# Reference: paper PMC9376960, “Ruthenium(II)–Tris-pyrazolylmethane Complexes Inhibit Cancer Cell Growth by Disrupting Mitochondrial Calcium Homeostasis” (Journal of Medicinal Chemistry, 2022)
